Experimental findings from US20120095055A1, “HEXAHYDROCYCLOPENTYL[f]INDAZOLE 5-HYDROXYMETHYL ETHANOLS AND DERIVATIVES THEREOF AS SELECTIVE GLUCOCORTICOID RECEPTOR MODULATORS” (Merck Sharp & Dohme, Corp., priority 2009, published 2012) are described below.

The target of this assay is T1, glucocorticoid receptor (GR) (Homo sapiens, UniProt P04150).
T1 construct: endogenous in cells; host or cells: HeLa (ATCC) cell lysate supernatant
T1 sequence (P04150 1-777): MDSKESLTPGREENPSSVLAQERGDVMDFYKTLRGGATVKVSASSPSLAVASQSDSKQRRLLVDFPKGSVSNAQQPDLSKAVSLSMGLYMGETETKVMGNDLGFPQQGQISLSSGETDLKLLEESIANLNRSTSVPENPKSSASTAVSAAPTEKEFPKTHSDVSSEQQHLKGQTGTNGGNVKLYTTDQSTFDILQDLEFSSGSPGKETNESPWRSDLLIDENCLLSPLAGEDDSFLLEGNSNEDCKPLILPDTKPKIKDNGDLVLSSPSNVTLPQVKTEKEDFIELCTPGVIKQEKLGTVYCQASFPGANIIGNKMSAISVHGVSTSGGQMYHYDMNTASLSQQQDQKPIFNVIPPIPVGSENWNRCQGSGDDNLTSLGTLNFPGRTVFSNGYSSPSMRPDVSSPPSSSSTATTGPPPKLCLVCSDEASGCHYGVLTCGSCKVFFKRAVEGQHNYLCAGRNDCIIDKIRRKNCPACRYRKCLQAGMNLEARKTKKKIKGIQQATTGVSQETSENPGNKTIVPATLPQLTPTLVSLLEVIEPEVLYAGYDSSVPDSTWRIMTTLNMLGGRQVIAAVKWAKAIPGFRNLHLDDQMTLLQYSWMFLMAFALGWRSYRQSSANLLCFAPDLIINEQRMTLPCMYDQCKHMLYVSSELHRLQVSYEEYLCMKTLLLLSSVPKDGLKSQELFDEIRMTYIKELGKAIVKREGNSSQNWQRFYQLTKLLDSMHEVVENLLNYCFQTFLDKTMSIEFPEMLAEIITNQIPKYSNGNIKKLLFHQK
Kind of assay: GR Ligand Binding Assay (3H-dexamethasone displacement, HeLa cell lysate). The settings on record: 3H-DEX trace, DEX as reference, read-out: GR BIND Ki. Here is the method: Binding Buffer: TEGM (10 mM Tris-HCl, 1 mM EDTA, 10% glycerol, 1 mM beta-mecaptoethanol, 10 mM Sodium Molybdate, pH 7.2)
Dexmethasone-methyl-^3H, (DEX*); (Amersham cat# TRK645) Dexamethasone(DEX) (Sigma, cat# D1756):
Cells (Hall R. E., et al., European Journal of Cancer, 30A: 484-490 (1994)) HeLa (ATCC) cultured in RPMI 1640 (Gibco 11835-055) containing 20 mM Hepes, 4 mM L-glu, 10 ug/ml of human insulin (Sigma, I-0259), 10% FBS and 20 ug/ml of Gentamicin (Gibco#15710-072) are rinsed twice in PBS. Phenol red-free Trypsin-EDTA is diluted in the same PBS 1:10. The cell layers are rinsed with 1× Trypsin, extra Trypsin is poured out, and the cell layers are incubated at 37° C. for ˜2 min. The flask is tapped and checked for signs of cell detachment. Once the cells begin to slide off the flask, the complete media is added. The cells are counted at this point, then diluted to the appropriate concentration and split into flasks or dishes for further culturing (Usually 1:3 to 1:6 dilution).
When the cells are 70 to 85% confluent, they are detached as described above, and collected by centrifuging at 1000 g for 10 minutes at 4° C. The cell pellet is washed twice with TEGM (10 mM Tris-HCl, 1 mM EDTA, 10% glycerol, 1 mM beta-mercaptoethanol, 10 mM Sodium Molybdate, pH 7.2). After the final wash, the cells are resuspended in TEGM at a concentration of 10^7 cells/mL. The cell suspension is snap frozen in liquid nitrogen or ethanol/dry ice bath and transferred to −80° C. freezer on dry ice. Before setting up the binding assay, the frozen samples are left on ice-water to just thaw (˜1 hr). Then the samples are centrifuged at 12,500 g to 20,000 g for 30 min at 4° C. The supernatant is used to set-up assay right away. If using 50 μL of supernatant, the test compound can be prepared in 50 μL of the TEGM buffer.
1×TEGM buffer is prepared, and the isotope-containing assay mixture is prepared in the following order: EtOH (2% final concentration in reaction), ^3H-DEX (Amersham Biosciences) and 1×TEGM. [e.g. For 100 samples, 200 μL (100×2) of EtOH+4.25 μL of 1:10 ^3H—Dex stock+2300 μL (100×23) 1×TEGM]. The compound is serially diluted, e.g., if starting final conc. is 1 μM, and the compound is in 25 μL of solution, for duplicate samples, 75 μL of 4×1 μM solution is made and 3 μL of 100 μM is added to 72 μL of buffer, and 1:5 serial dilution.
25 μL, of 3H-DEX (6 nM) trace and 25 μL compound solution are first mixed together, followed by addition of 50 μL receptor solution. The reaction is gently mixed, spun briefly at about 200 rpm and incubated at 4° C. overnight. 100 μL of 50% HAP slurry is prepared and added to the incubated reaction which is then vortexed and incubated on ice for 5 to 10 minutes. The reaction mixture is vortexed twice more to resuspend HAP while incubating reaction. The samples in 96-well format are then washed in wash buffer using The FilterMate™ Universal Harvester plate washer (Packard). The washing process transfers HAP pellet containing ligand-bound expressed receptor to Unifilter-96 GF/B filter plate (Packard). The HAP pellet on the filter plate is incubated with 50 μL of MICROSCINT (Packard) scintillint for 30 minutes before being counted on the TopCount microscintillation counter (Packard). IC50s are calculated using DEX as a reference.
Consider `Cc1ccc(C(O)C[C@]2(CO)CCC3=Cc4c(cnn4-c4ccc(F)cc4)C[C@@]32C)cc1` (single isomer, unassigned) [Example 2b], for which the Ki – broadly, the dissociation constant of the complex between target and ligand, obtained from inhibition or displacement – was determined as 2.1 nM.
Regarding `C[C@]12Cc3cnn(-c4ccc(F)cc4)c3C=C1CC[C@@]2(CO)CC(O)c1ccc(F)cn1` (single isomer, unassigned) [Example 22b], the Ki is 5.1 nM.
To `C[C@]12Cc3cnn(-c4ccc(F)cc4)c3C=C1CC[C@@]2(CO)CC(O)c1ccc(F)cn1` (single isomer, unassigned) [Example 22a] belongs 2.3 nM.
For `C[C@]12Cc3cnn(-c4ccc(F)cc4)c3C=C1CC[C@@]2(CO)CC(O)c1cccnc1` (single isomer, unassigned) [Example 15a], the Ki worked out at 10 nM.
For `C[C@]12Cc3cnn(-c4ccc(F)cc4)c3C=C1CC[C@@]2(CO)CC(O)c1ncccc1F` (single isomer, unassigned) [Example 10a], the inhibition constant (Ki) was 3.1 nM.
To `COc1ccc(C(O)C[C@]2(CO)CCC3=Cc4c(cnn4-c4ccc(F)cc4)C[C@@]32C)nc1` (single isomer, unassigned) [Example 24b] belongs 7.5 nM; to `C[C@]12Cc3cnn(-c4ccc(F)cc4)c3C=C1CC[C@@]2(CO)CC(O)C(F)(F)F` (single isomer, unassigned) [Example 28b], 5.4 nM.
The figure for `C[C@]12Cc3cnn(-c4ccccc4)c3C=C1CC[C@@]2(CO)CC(O)c1ccccn1` (single isomer, unassigned) [Example 23b] is 3.3 nM; for `Cc1cccc(C(O)C[C@]2(CO)CCC3=Cc4c(cnn4-c4ccc(F)cc4)C[C@@]32C)c1` (single isomer, unassigned) [Example 5a] it is 1.4 nM.
The figure for `C[C@]12Cc3cnn(-c4ccc(F)cc4)c3C=C1CC[C@@]2(CO)CC(O)c1cccc(C(F)(F)F)c1` (single isomer, unassigned) [Example 7a] is 0.6 nM; for `C[C@]12Cc3cnn(-c4ccc(F)cc4)c3C=C1CC[C@@]2(CO)CC(O)c1ncccc1F` (single isomer, unassigned) [Example 10b] it is 1.8 nM; for `CC(C)C(O)C[C@]1(CO)CCC2=Cc3c(cnn3-c3ccc(F)cc3)C[C@@]21C` (single isomer, unassigned) [Example 14b] it is 14.1 nM.
In the case of `C[C@]12Cc3cnn(-c4ccc(F)cc4)c3C=C1CC[C@@]2(CO)CC(O)c1ccccc1` (single isomer, unassigned) [Example 13b], the Ki turned out to be 1.9 nM.
To `C[C@]12Cc3cnn(-c4ccc(F)cc4)c3C=C1CC[C@@]2(CO)CC(O)C1CC1` (single isomer, unassigned) [Example 20b, 1-cyclopropyl-2-[(4αS)-1-(4-fluorophenyl)-5-(hydroxymethyl)-4α-methyl-1,4,4α,5,6,7-hexahydrocyclopenta[f]indazol-5-yl]ethanol] belongs 15.1 nM; to `C[C@]12Cc3cnn(-c4ccc(F)cc4)c3C=C1CC[C@@]2(CO)CC(O)c1ccccc1F` (stereo partly drawn) [Example 4, 1-(2-fluorophenyl)-2-[(4αS,5R)-1-(4-fluorophenyl)-5-(hydroxymethyl)-4α-methyl-1,4,4α,5,6,7-hexahydrocyclopenta[f]indazol-5-yl]ethanol], 0.9 nM.
In the case of `COc1cccnc1C(O)C[C@]1(CO)CCC2=Cc3c(cnn3-c3ccc(F)cc3)C[C@@]21C` (single isomer, unassigned) [Example 21a], the Ki was 7.6 nM.
Regarding `C[C@]12Cc3cnn(-c4ccccc4)c3C=C1CC[C@@]2(CO)CC(O)c1cccnc1` (single isomer, unassigned) [Example 29b], the Ki worked out at 8.2 nM.
The figure for `C[C@]12Cc3cnn(-c4ccc(F)cc4)c3C=C1CC[C@@]2(CO)CC(O)c1cccnc1` (single isomer, unassigned) [Example 15b] is 8.3 nM; for `C[C@]12Cc3cnn(-c4ccc(F)cc4)c3C=C1CC[C@@]2(CO)CC(O)c1ccccc1` (single isomer, unassigned) [Example 13a] it is 2.5 nM; for `C[C@]12Cc3cnn(-c4ccc(F)cc4)c3C=C1CC[C@@]2(CO)CC(O)c1ccccc1Cl` (single isomer, unassigned) [Example 3b] it is 0.9 nM.
The figure for `C[C@]12Cc3cnn(-c4ccc(F)cc4)c3C=C1CC[C@@]2(CO)CC(O)c1cccc(Cl)c1` (stereo partly drawn) [Example 8, 1-(3-chlorophenyl)-2-[(4αS,5R)-1-(4-fluorophenyl)-5-(hydroxymethyl)-4α-methyl-1,4,4α,5,6,7-hexahydrocyclopenta[f]indazol-5-yl]ethanol] is 1.2 nM.
The figure for `C[C@]12Cc3cnn(-c4ccc(F)cc4)c3C=C1CC[C@@]2(CO)CC(O)c1cccc(C(F)(F)F)c1` (single isomer, unassigned) [Example 7b] is 0.9 nM.
Consider `COc1ccc(C(O)C[C@]2(CO)CCC3=Cc4c(cnn4-c4ccc(F)cc4)C[C@@]32C)nc1` (single isomer, unassigned) [Example 24a], for which the Ki is 3.1 nM.
The figure for `C[C@]12Cc3cnn(-c4cccc(F)c4)c3C=C1CC[C@@]2(CO)CC(O)c1ccccn1` (single isomer, unassigned) [Example 19a] is 3.7 nM; for `Cc1ccc(C(O)C[C@]2(CO)CCC3=Cc4c(cnn4-c4ccc(F)cc4)C[C@@]32C)nc1` (stereo partly drawn) [Example 16, 2-[(4αS,5R)-1-(4-fluorophenyl)-5-(hydroxymethyl)-4α-methyl-1,4,4α,5,6,7-hexahydrocyclopenta[f]indazol-5-yl]-1-(5-methylpyridin-2-yl)ethanol] it is 3.7 nM; for `CC(O)(C[C@]1(CO)CCC2=Cc3c(cnn3-c3ccc(F)cc3)C[C@@]21C)c1cccnc1` (single isomer, unassigned) [Example 25b] it is 21.9 nM.
`C[C@]12Cc3cnn(-c4cccc(F)c4)c3C=C1CC[C@@]2(CO)CC(O)c1ccccn1` (single isomer, unassigned) [Example 19b]: the Ki came out at 9 nM.
For the compound `COc1cccnc1C(O)C[C@]1(CO)CCC2=Cc3c(cnn3-c3cccc(F)c3)C[C@@]21C` (single isomer, unassigned) [Example 26b], the Ki is 35.5 nM.
The figure for `C[C@]12Cc3cnn(-c4cccc(F)c4)c3C=C1CC[C@@]2(CO)CC(O)c1cccnc1` (single isomer, unassigned) [Example 27a] is 13.9 nM.
